Values quoted from earlier work as cited in patent publication US20230414692A1, “ETHANOLIC EXTRACT OF SEEDS OF SOLANUM MELONGENA, METHOD FOR OBTAINING IT, PHARMACEUTICAL COMPOSITION CONTAINING IT AND USE THEREOF AS AN ANTITUMOUR AGENT” (UNIVERSIDAD DE GRANADA, priority 2020, published 2023).

Columns and labels:
[1] = system: NIE.115 neuroblastoma cell line; settings: Cohen et al., 1996
[2] = system: 143B.TK osteosarcoma cell line; settings: Cohen et al., 1996

SMILES: C/C=C(/C)C(=O)O[C@H]1C[C@@H](OC(C)=O)[C@@]2(C)CO[C@H]3[C@H]4O[C@@H]5C[C@@H](c6ccoc6)C(C)=C5[C@@]4(C)[C@H](CC(=O)OC)[C@]1(C)[C@@H]32 [Salannin]
- IC50 [1]: 133 ± 6 µM
- IC50 [2]: 89 ± 12 µM
